Values of other authors, collected in patent US6818776B2, “Alkali metal salt of thiazolidine-2,4-dione derivative” (Kyorin Pharmaceutical Co., Ltd., priority 2000, dated 2004).

Columns and labels:
[1] = reported in M. Nomura et al, Bioorg. Med. Chem. Lett., 1999, 9, 533
[2] = system: human peroxisome proliferator-activated receptor (PPAR); details: reported in K. Murakami et al, Diabetes. 1998, 47, 1841

Structure (SMILES): COc1ccc(CC2SC(=O)NC2=O)cc1C(=O)NCc1ccc(C(F)(F)F)cc1 (centres unmarked) [KRP-297, 5-[(2,4-Dioxothiazolidin-5-yl)methyl]-2-methoxy-N-[[4-(trifluoromethyl)phenyl]methyl]benzamide]
- antihyperglycemic activity [1]: excellent antihyperglycemic activity
- agonistic action against human PPAR [2]: agonistic action
